Test results reported in patent publication US9493524B2, “Methods for treatment of stroke or cerebrovascular accidents using an ETB receptor agonist” (MIDWESTERN UNIVERSITY, priority 2007, dated 2016).
Numbered stars: 1 amine (or outer) side, 2 acyl side, 3 side chain; on linkers, the order of the positions; unused ones are H or OH. Peptide text beside a SMILES is read from it. Suc = O=C(CCC(=O)[*:2])[*:1]

Legend:
Type in all cases: in vivo, Sprague-Dawley rats
[1] = tested on: urethane anesthetized rat; experiment: Arterial blood gas analysis; conditions: IRL-1620 5 μg/kg, i.v., ET-1 0.75 μg/kg
Protocol: (§1) Male Sprague-Dawley rats weighing 323±4 grams (g) were anesthetized with urethane (ethyl carbamate, Sigma Aldrich, St. Louis, Mo.) dissolved in isotonic saline (0.9% NaCl, Hospira, Inc., Lake Forest, Ill.). The rats were administered a dose of 0.15 g per 100 g body weight via intraperitoneal (i.p.) injection.
Blood Gas Analysis: Arterial blood gases were monitored to determine the effects on pH, pCO2, and pO2. Blood was drawn from the arteriole cannula and analyzed using a GEM Premier 3000 unit (Instrument Laboratory, Lexington, Mass.).
(§2) Blood pressure, heart rate, cerebral blood perfusion, and renal blood perfusion all were recorded for 2 hours following the final injection. Blood gases were analyzed prior to administration of any drugs, and at 60 and 120 min following administration of IRL-1620 or ET-1. At the end of each experiment, the animals were euthanized with an overdose of urethane i.v. In the figures, all data values are presented as mean±SEM. One-sample t-tests and one-way ANOVAs were used to test the differences within and between the groups. A P value of P<0.05 was considered significant.

[2] = tested on: urethane anesthetized rat; experiment: Cerebral blood perfusion by Laser Doppler Flowmetry; conditions: BQ788 1 μg/kg
Protocol: as §1
Cerebral Perfusion: A burr hole was drilled into the rat skull about 2 millimeters (mm) to the left of midline. Cerebrovascular perfusion was measured via a fiber optic probe (PF407) applied to the surface of the rat brain. The probe was connected to a Periflux PF2b 4000 Laser Doppler Flowmetry unit (Perimed, Stockholm, Sweden).
(§3) The rats were randomly selected for various studies. Following surgery the rats were allowed to stabilize for 30 minutes and a 15 minutes baseline recording of all parameters (blood pressure, heart rate, cerebral blood flow, and renal blood flow) was obtained prior to the administration of the pretreatment followed by IRL-1620 (Suc-[Glu 9, Ala 11,15], American Peptide Co, Inc., Sunnyville, Calif.) or ET-1 (Ala 1,3,11,15, RBI Sigma, Natick, Mass.). BQ-788, a selective endothelin B antagonist, is the sodium salt of N-cis-2,6-dimethylpiperidinocarbonyl-L-gamma-methylleucyl-D-1-methoxycarbonyl triptophanyl-DNIe (see Proc. Natl. Acad. Sci. USA, 91, pp. 4892-4896 (1994)) BMS is BMS 182, 874, which is a selective endothelin A antagonist having a structure
(§4) Group 1: Animals (n=4) were pretreated with saline 15 minutes (min) prior to administration of IRL-1620 (5 μg/kg, i.v.).
(§5) Group 2: Animals (n=4) were pretreated with BMS (5 mg/kg, i.v.) 15 min prior to administration of IRL-1620 (5 μg/kg, i.v.).
(§6) Group 3: Animals (n=4) were pretreated with BMS (15 mg/kg, i.v.) 15 min prior to administration of IRL-1620 (5 μg/kg, i.v.).
(§7) Group 4: Animals (n=4) were pretreated with BQ788 (1 μg/kg, i.v.) 15 min prior to administration of IRL-1620 (5 μg/kg, i.v.).
(§8) Group 1: Animals (n=4) were pretreated with saline 15 min prior to administration of ET-1 (0.75 μg/kg, i.v.).
(§9) Group 2: Animals (n=4) were pretreated with BMS (5 mg/kg, i.v.) 15 min prior to administration of ET-1 (0.75 μg/kg, i.v.).
(§10) Group 3: Animals (n=4) were pretreated with BMS (15 mg/kg, i.v.) 15 min prior to administration of ET-1 (0.75 μg/kg, i.v.).
(§11) Group 4: Animals (n=4) were pretreated with BQ788 (1 μg/kg, i.v.) 15 min prior to administration of ET-1 (0.75 μg/kg, i.v.).
as §2

[3] = tested on: urethane anesthetized rat; experiment: Renal blood perfusion by Laser Doppler Flowmetry; conditions: BMS 5 and 15 mg/kg, i.v., BQ788 1 μg/kg
Protocol: as §1
Renal Perfusion: The right kidney was dissected retroperitoneally. Renal perfusion was measured via a fiber optic probe (PF408) applied to the surface of the rat kidney. The probe was connected to a Periflux PF2b 4000 Laser Doppler Flowmetry unit (Perimed, Stockholm, Sweden).
as §3, §4, §5, §6, §7, §8, §9, §10, §11, §2

[4] = tested on: urethane anesthetized rat; experiment: Blood pressure / mean arterial pressure recording; conditions: BMS 5 and 15 mg/kg, i.v., BQ788 1 μg/kg
Protocol: as §1
(§12) Blood Pressure and Heart Rate: The femoral vein and artery were cannulated. The arterial cannula was connected to a Gould P23 ID pressure transducer for recording the blood pressure on a Grass P7D polygraph through a 7PI preamplifier. The heart rate was recorded through a 7P4B Grass tachograph, triggered from blood pressure signals. Drugs were administered via the venous cannula.
as §3, §4, §5, §6, §7, §8, §9, §10, §11, §2

[5] = tested on: urethane anesthetized rat; experiment: Heart rate recording; conditions: IRL-1620 5 μg/kg, i.v.; for heart rate: 1 μg/kg BQ788 pretreatment, mean±SEM, in bpm (unit assumed)
Protocol: as §1, §12, §3, §4, §5, §6
Group 4: Animals (n=4) were pretreated with BQ788 (1 μg/kg, i.v.) 15 min prior to administration of IRL-1620 (5 μg/kg, i.v.). […]
as §2

[6] = time 0 min (prior to any drugs)

## CC[C@H](C)[C@H](NC(=O)[C@H](CC(=O)O)NC(=O)[C@H](CC(C)C)NC(=O)[C@H](Cc1c[nH]cn1)NC(=O)[C@H](C)NC(=O)[C@H](Cc1ccccc1)NC(=O)[C@H](Cc1ccc(O)cc1)NC(=O)[C@@H](NC(=O)[C@H](C)NC(=O)[C@H](CCC(=O)O)NC(=O)[C@H](CCC(=O)O)NC(=O)[C@H](CC(=O)O)NC(=O)CCC(=O)O)C(C)C)C(=O)N[C@H](C(=O)N[C@@H](Cc1c[nH]c2ccccc12)C(=O)O)[C@@H](C)CC [IRL-1620, N-Succinyl-[Glu^9, Ala^11,15]-Endothelin 1 fragment 8-21] (Suc-DEEAVYFAHLDIIW-OH)
[1]
  effect on arterial blood gases (text to Table 2): Neither IRL-1620 nor ET-1 significantly affected blood gases
[1]; [6]
  arterial blood pCO2: 42 ± 2
  arterial blood pH: 7.32 ± 0.01
  arterial blood pO2: 103 ± 3
[1]; time 60 min
  arterial blood pCO2: 46 ± 6
  arterial blood pH: 7.27 ± 0.01
  arterial blood pO2: 99 ± 9
[1]; time 120 min
  arterial blood pCO2: 32 ± 3
  arterial blood pH: 7.29 ± 0.01
  arterial blood pO2: 113 ± 6

## CCCC[C@@H](NC(=O)[C@@H](Cc1cn(C(=O)OC)c2ccccc12)NC(=O)[C@H](CC(C)(C)C)NC(=O)N1[C@H](C)CCC[C@@H]1C)C(=O)O [BQ788, N-cis-2,6-dimethylpiperidinocarbonyl-L-gamma-methylleucyl-D-1-methoxycarbonyl triptophanyl-DNIe]
[2]; BMS 5 and 15 mg/kg, i.v., ET-1 0.75 μg/kg, FIG. 7
  effect of pretreatment on the effect of ET-1 on cerebral blood flow: no significant change
[2]; i.v. 15 min prior to IRL-1620 5 μg/kg, FIG. 6
  effect of pretreatment on the effect of IRL-1620 on cerebral blood flow: effectively blocked
[3]; ET-1 0.75 μg/kg, FIG. 10
  effect of pretreatment on the effect of ET-1 on renal blood flow: No pretreatment significantly altered
[3]; IRL-1620 5 μg/kg, FIG. 9
  effect of pretreatment on the effect of IRL-1620 on renal blood flow: effectively blocked
[4]; ET-1 0.75 μg/kg, FIG. 13
  effect of pretreatment on the effect of ET-1 on mean arterial pressure: failed to alter
[4]; IRL-1620 5 μg/kg, FIG. 12
  effect of pretreatment on the effect of IRL-1620 on mean arterial pressure: effectively blocked
[5]; time 0 min
  heart rate: 344 ± 5
[5]; time 1 min
  heart rate: 350 ± 6
[5]; time 5 min
  heart rate: 345 ± 4
[5]; time 10 min
  heart rate: 345 ± 4
[5]; time 15 min
  heart rate: 347 ± 3
[5]; time 30 min
  heart rate: 347 ± 4
[5]; time 45 min
  heart rate: 350 ± 6
[5]; time 60 min
  heart rate: 351 ± 9
[5]; time 90 min
  heart rate: 351 ± 13
[5]; time 120 min
  heart rate: 353 ± 13
[5]; BMS 5 and 15 mg/kg, BQ788
  effect of pretreatment on the effect of IRL-1620 on heart rate (Table 1): effectively blocked
